Laboratory results as given in US5700445A, “N-methyl piperazine compounds having dopamine receptor affinity” (Allelix Biopharmaceuticals, Inc., priority 1994, dated 1997).
pKi: −log10 of the molar value.

How the values were obtained:
[1] = target: T1, human D2 receptor (short isoform) (Homo sapiens, UniProt P14416); test: D2 receptor binding assay (displacement of 3H-spiperone), reported as D2/D4 selectivity; conditions: ratio D2/D4; 3H-spiperone 0.25 nM; D2 short isoform vs D4.2
T1 construct: 3H-spiperone displacement
Experimental: (§1) The potency of the test compound to reduce ^3 H-spiperone binding directly correlated to its binding affinity for the receptor.
CH4 C1 (rat pituitary) cells stably transfected with the human D2 receptor (short isoform) were grown in CO2 independent media in roller bottles (1500 cm^2) for 10 days. 100 μM ZnSO4 was added to the cells (the D2 promoter being zinc inducible). After 16 hours, fresh media was added to allow the cells to recover for 24 hours. The cells were harvested using versine and then centrifuged in a Sorval centrifuge for 10 minutes, at 5000 rpm (GS3 rotor). Pellets were quickly frozen in liquid nitrogen and stored at -80° C. until used in the binding assays. When used in the assay, cells were thawed on ice for 20 minutes. […] The receptor protein concentration was determined using the Pierce BCA assay.
(§2) The tubes were vortexed and incubated at room temperature for 90 minutes. The binding reaction was stopped by filtering using a Brandell Cell Harvester. The samples were filtered under vacuum over glass fibre filters (Whatman GF/B) presoaked for 2 hours in 0.3% polyethylenimine (PEI) in 50 mM Tris buffer (pH 7.4). The filters were then washed 3 times with 5 ml ice cold 50 mM Tris buffer (pH 7.4). Individual filter disks were put in scintillation vials (Biovials, Bechman). Ready Protein Plus liquid scintillant (5 ml, Beckman) was added and the vials counted by liquid scintillation spectrophotometry (Beckman LSC 6500) after equilibrating for three hours at room temperature to determine total binding (BT).
This assay employed the same procedures as the non-specific binding assay for D4 with the exception that 2 μM (final conc.) of (-) sulpiride (Research Chemicals Inc.) was used in place of dopamine.
(§3) The tubes were vortexed and incubated at room temperature for 90 minutes at which time the binding reaction was stopped by filtering. The filters were washed and counted using the same procedure as in the total binding assay described above to give the displacement binding value (BD).
(§4) IC50 was determined from an inhibition response curve, logit-log plot of %B/B0 vs concentration of test compound. Ki was calculated by the Cheng and Prustoff transformation: […]
where [L] is the concentration of ^3 H-spiperone used in the assay and KD is the dissociation constant of ^3 H-spiperone determined independently under the same binding conditions.

[2] = target: T2, human D4 receptor (D4.2 sub-type) (Homo sapiens, UniProt P21917, DEL265-296); test: D4 receptor binding assay (displacement of 3H-spiperone); conditions: 3H-spiperone 0.25 nM, cell membranes, Cheng and Prustoff, read-out: D4 AFFINITY Ki
T2 construct: expressed in transfected cells; host or cells: HEK 298 (human embryonic kidney) cells, stably transfected
T2 sequence (P21917 with tags, fused parts or gaps DEL265-296): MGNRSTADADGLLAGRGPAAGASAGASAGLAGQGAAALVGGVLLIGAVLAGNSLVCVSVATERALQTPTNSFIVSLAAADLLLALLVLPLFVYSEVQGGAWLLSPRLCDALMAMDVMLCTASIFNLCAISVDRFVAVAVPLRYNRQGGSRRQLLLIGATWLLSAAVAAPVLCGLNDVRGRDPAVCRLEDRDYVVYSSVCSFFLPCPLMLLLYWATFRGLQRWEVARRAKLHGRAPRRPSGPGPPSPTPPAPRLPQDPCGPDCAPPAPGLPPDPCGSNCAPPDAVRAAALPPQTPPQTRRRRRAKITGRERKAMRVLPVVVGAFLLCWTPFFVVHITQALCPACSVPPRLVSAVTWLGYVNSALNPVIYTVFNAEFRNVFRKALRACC
Experimental: as §1
The cells were then centrifuged in a Sorval centrifuge for 10 min, 5000 rpm (GS3 rotor) and the pellets quickly frozen in liquid nitrogen and stored at -80° C. until used in binding assay. When used in the assay, cells were thawed on ice for 20 min and then 10 ml of incubation buffer (50 mM Tris, 1 mM EDTA, 4 mM MgCl2, 5 mM KCl, 1.5 mM CaCl2, 120 mM NaCl, pH 7.4) was added. […] Concentration of receptor protein was determined using the Pierce BCA assay.
as §2
The tubes were vortexed and incubated at room temperature for 90 minutes at which time the binding reaction was stopped by filtering. The filters were washed and counted using the same procedure as in the total binding assay described above to give the non-specific binding value (NSB).
as §3, §4

[3] = target: T3, human D4 receptors (Homo sapiens, UniProt P21917); test: Functional agonist assay: decrease in forskolin-stimulated cAMP in D4 stably expressing CHO cells; assay type: cell-based; conditions: forskolin 10 μM
T3 construct: expressed in transfected cells; host or cells: CHO Pro 5 cells, stably expressing
T3 sequence (P21917 1-419): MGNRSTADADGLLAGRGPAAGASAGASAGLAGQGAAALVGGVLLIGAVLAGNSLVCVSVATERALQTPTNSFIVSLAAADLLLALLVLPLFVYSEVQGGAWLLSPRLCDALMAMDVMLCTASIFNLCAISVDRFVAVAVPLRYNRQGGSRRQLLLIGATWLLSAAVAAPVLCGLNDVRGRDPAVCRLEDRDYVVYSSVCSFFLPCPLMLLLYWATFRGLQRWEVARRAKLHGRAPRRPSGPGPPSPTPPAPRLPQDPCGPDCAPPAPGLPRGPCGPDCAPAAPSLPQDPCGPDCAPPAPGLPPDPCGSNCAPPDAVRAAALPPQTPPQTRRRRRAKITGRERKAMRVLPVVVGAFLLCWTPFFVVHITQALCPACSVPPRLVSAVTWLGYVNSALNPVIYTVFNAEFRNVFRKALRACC
Experimental: The D4 receptor responds to dopamine and other agonists by reducing adenyl cyclase mediated production of cyclic AMP. Particular test compound 4-chloro-5H-dibenzo[b,e][1,4]diazepine was assayed for its ability to reverse dopamine inhibition of adenyl cyclase by the following procedure. Forskolin was used to elevate the basal adenyl cyclase activity.
(§5) CHO Pro 5 cells stably expressing human D4 receptors were plated in 6 well plates in DMEM (Dulbecco's Modified Eagle Medium)/F12(Nutrient Mixture F12 (Ham)) media with 10% FCS (fetal calf serum) and G418 (Geneticen Disulfate), and incubated at 37° C. in a CO2 incubator. The cells were allowed to grow to about 70% confluence before use in the assay.
To D4 stably expressing CHO cells prepared as previously described were added test compound and forskolin (10 μM final concentration). The cells were incubated, extracted and measured for cAMP concentration as above. Agonist activity of a test compound would result in a decrease in cAMP concentration compared to cells treated with forskolin (Cf) only.

[4] = target: T3, human D4 receptors; test: Functional antagonist assay: reversal of dopamine inhibition of forskolin-stimulated adenyl cyclase (cAMP) in CHO Pro 5 cells; assay type: cell-based; conditions: dopamine and forskolin both 10 μM, read-out: % REVERSAL OF DOPAMINE EFFECT
Experimental: The D4 receptor responds to dopamine and other agonists by reducing adenyl cyclase mediated production of cyclic AMP. […] Forskolin was used to elevate the basal adenyl cyclase activity.
as §5
Basal adenyl cyclase activity was determined from wells with only SFM+IBMX media added.
The cells were then incubated at 37° C. for 30 minutes in a CO2 incubator. Following incubation the media was aspirated from each well and then washed once with 2 mL of PBS (phosphate buffered saline). […] The cells from each well were then scraped and transferred into individual Eppendorf tubes. […]
Total inhibition (I0) of forskolin-stimulated adenyl cyclase activity by dopamine was determined as the difference in concentration of cAMP in the forskolin-treated cells (Cf) and dopamine-forskolin treated cells (Cd).
Net inhibition (I) of forskolin-stimulated adenyl cyclase activity by dopamine in the presence of an antagonist was determined as the difference in concentration of cAMP in the forskolin-treated cells (Cf) and test compound, dopamine and forskolin treated cells (C).

[5] = target: D4 receptor; conditions: background, marketed products; read-out: D4 affinity, Ki; cited from earlier work

T1 sequence (P14416 with tags, fused parts or gaps DEL242-270): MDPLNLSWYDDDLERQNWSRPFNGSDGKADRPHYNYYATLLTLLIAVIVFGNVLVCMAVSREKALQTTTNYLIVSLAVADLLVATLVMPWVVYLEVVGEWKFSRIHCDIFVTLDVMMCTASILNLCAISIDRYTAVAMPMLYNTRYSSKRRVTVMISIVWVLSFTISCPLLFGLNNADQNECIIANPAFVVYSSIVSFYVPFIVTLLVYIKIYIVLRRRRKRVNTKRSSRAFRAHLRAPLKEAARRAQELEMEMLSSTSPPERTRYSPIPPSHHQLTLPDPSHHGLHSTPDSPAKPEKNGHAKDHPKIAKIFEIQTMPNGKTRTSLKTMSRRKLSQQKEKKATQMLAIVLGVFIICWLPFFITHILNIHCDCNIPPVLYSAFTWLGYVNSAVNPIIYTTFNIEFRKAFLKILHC

SMILES	SELECTIVITY FOR D4, D2/D4 [1]	pKi [2]	also measured
CN1CCN(C2=Nc3ccccc3Nc3cccc(F)c32)CC1 [1-fluoro-11-(4-methyl-1-piperazinyl)-5H-dibenz[b,e][1,4]diazepine]	12.6	–	–
CN1CCN(C2=Nc3cc(Cl)c(Cl)cc3Nc3ccc(Cl)cc32)CC1 [2,7,8-trichloro-11-(4-methyl-1-piperazinyl)-5H-dibenzo[b,e][1,4]diazepine]	10.7	–	–
CN1CCN(C2=Cc3cc(C#N)ccc3Sc3ccccc32)CC1 [2-cyano-10-(4-methyl-piperazinyl)-dibenzo[b,f]thiepine]	21.4	8.35	–
CN1CCN(C2=Nc3ccccc3Nc3ccc(C(F)(F)F)cc32)CC1 [2-trifluoromethyl-11-(4-methyl-1-piperazinyl)-5H-dibenzo[b,e][1,4]diazepine]	–	7.85	–
CN1CCN(C2=Nc3cc(Cl)c(Cl)cc3Nc3c(Cl)cccc32)CC1 [4,7,8-trichloro-11-(4-methyl-1-piperazinyl)-5H-dibenzo[b,e][1,4]diazepine]	18.8	–	–
CN1CCN(C2=Nc3ccccc3Nc3c(Cl)cccc32)CC1 [4-Chloro-11-(4-methyl-1-piperazinyl)-5H-dibenzo[b,e][1,4]diazepine]	187.5	7.78	dopamine agonist activity (decrease in cAMP compared to cells treated with forskolin) [3]: no dopamine agonist activity; inhibition at 1 µM ([4]; 1 μM test compound): 16%; inhibition at 10 µM ([4]; 10 μM test compound): 58%
CN1CCN(C2=Nc3ccccc3Oc3c(C#N)cccc32)CC1 [4-cyano-11-(4-methyl-1-piperazinyl)dibenz[b,f][1,4]oxazepine]	64.4	–	–
CN1CCN(C2=Nc3ccccc3Oc3c2cccc3[N+](=O)[O-])CC1 [4-nitro-11-(4-methyl-1-piperazinyl)dibenz[b,f][1,4]oxazepine]	21.4	–	–
Cc1cc2c(cc1C)Nc1ccccc1C(N1CCN(C)CC1)=N2 [7,8-dimethyl-11-(4-methyl-1-piperazinyl)-5H-dibenzo[b,e][1,4]diazepine]	10.6	–	–
CN1CCN(C2=Nc3cc(Cl)ccc3Oc3ccccc32)CC1 [isoloxapine]	–	–	pKi [5]: ~7.70
